Experimental data from BindingDB's records for doi:10.1021/jm00075a013 (Ciba-Geigy, 1994).

Legend:
[1] = biological target: Arachidonate 5-lipoxygenase (Cavia porcellus); assay: In vitro inhibitory activity against 5-lipoxygenase by reduction of LTB4 formed in guinea pig polymorphonuclear leukocytes (PMNs).
[2] = biological target: Arachidonate 5-lipoxygenase (Cavia porcellus); assay: In vitro inhibitory activity against 5-lipoxygenase by reduction of 5-hydroxyeicosatetraenoic acid (5-HETE) formed in guinea pig polymorphonuclear leukocytes (PMNs).
[3] = biological target: Arachidonate 5-lipoxygenase (Cavia porcellus); assay: as above; remark: listed apart in the source
[4] = biological target: Thromboxane-A synthase (Homo sapiens) (UniProt P24557); assay: Inhibitory concentration against human platelet thromboxane synthetase
Thromboxane-A synthase (Homo sapiens), sequence (P24557 whole entry, looked up): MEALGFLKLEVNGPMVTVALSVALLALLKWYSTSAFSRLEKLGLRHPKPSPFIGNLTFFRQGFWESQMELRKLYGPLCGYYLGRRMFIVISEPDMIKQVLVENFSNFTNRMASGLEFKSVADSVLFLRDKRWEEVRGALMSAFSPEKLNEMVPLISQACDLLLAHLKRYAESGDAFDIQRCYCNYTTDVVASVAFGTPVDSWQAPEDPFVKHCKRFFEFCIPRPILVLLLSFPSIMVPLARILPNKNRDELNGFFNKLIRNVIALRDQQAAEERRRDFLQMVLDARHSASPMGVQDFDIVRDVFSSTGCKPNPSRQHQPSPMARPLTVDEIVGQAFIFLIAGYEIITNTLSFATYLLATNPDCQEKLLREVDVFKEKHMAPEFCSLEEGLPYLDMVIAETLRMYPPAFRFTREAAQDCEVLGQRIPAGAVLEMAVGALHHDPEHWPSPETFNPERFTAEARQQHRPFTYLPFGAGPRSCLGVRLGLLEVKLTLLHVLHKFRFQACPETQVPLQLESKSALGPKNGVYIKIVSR

IC50 [1] | IC50 [2] | IC50 [3] | IC50 [4] | Structure (SMILES)
160 nM | 130 nM | – | – | NC(=O)N(O)CC1=Cc2cc(OCCCc3ccccc3)ccc2OC1
490 nM | 430 nM | – | – | NC(=O)N(O)CC1=Cc2cc(OCc3ccc(C(F)(F)F)cc3)ccc2OC1 [N-[6-(4-Trifluoromethyl-benzyloxy)-2H-chromen-3-ylmethyl]-hydroxylurea]
69 nM | – | 65 nM | – | CCCCNC(=O)N(O)CC1=Cc2cc(Oc3ccccc3)ccc2OC1 [N-hydroxy-N-[(6-phenoxy-2H-chromen-3-yl)methyl]-N'-butylurea]
440 nM | 310 nM | – | – | CC1(C)Oc2ccc(Oc3ccccc3)cc2C=C1CN(O)C(N)=O [N-[(2,2-dimethyl-6-phenyoxy-2H-chromen-3-yl)methyl]-N-hydroxyurea]
340 nM | 280 nM | – | – | CCCCCCOc1ccc2c(c1)C=C(CN(O)C(N)=O)CO2 [N-(6-Hexyloxy-2H-chromen-3-ylmethyl)-hydroxylurea]
> 3000 nM | > 3000 nM | – | – | COc1ccc2c(c1)OCC(CN(O)C(N)=O)C2 (stereo not given) [N-hydroxy-N-[(7-methoxy-3,4-dihydro-2H-chromen-3-yl)methyl]urea]
1390 nM | – | 1360 nM | – | NC(=O)N(O)CC1=Cc2cc(OCC3CCCCC3)ccc2OC1 [N-(6-Cyclohexylmethoxy-2H-chromen-3-ylmethyl)-hydroxylurea]
230 nM | – | 240 nM | – | NC(=O)N(O)CC1=Cc2cc(-c3ccccc3)ccc2OC1 [N-hydroxy-N-[(6-phenyl-2H-chromen-3-yl)methyl]urea]
870 nM | 880 nM | – | – | CCCC1Oc2ccc(Oc3ccccc3)cc2C=C1CN(O)C(N)=O (stereo not given) [N-hydroxy-N-[(6-phenyoxy-2-propyl-2H-chromen-3-yl)methyl]urea]
– | – | – | > 20000 nM | NC(=O)N(O)CC1=Cc2cc(Oc3ccccc3)ccc2OC1 [N-hydroxy-N-[(6-phenoxy-2H-chromen-3-yl)methyl]urea]
63 nM | 49 nM | – | – | CC(C)NC(=O)N(O)CC1=Cc2cc(Oc3ccccc3)ccc2OC1 [N-hydroxy-N'-isopropyl-N-[(6-phenoxy-2H-chromen-3-yl)methyl]urea]
87 nM | 120 nM | – | – | CC1Oc2ccc(Oc3ccccc3)cc2C=C1CN(O)C(N)=O (stereo not given) [N-hydroxy-N-[(2-methyl-6-phenyoxy-2H-chromen-3-yl)methyl]urea]
– | – | – | > 20000 nM | CNC(=O)N(O)CC1=Cc2cc(Oc3ccc(F)cc3)ccc2OC1 [N-{[6-(4-fluorophenoxy)-2H-chromen-3-yl]methyl}-N-hydroxy-N'-methylurea]
44 nM | – | 37 nM | – | C=CCNC(=O)N(O)CC1=Cc2cc(Oc3ccccc3)ccc2OC1 [N'-allyl-N-hydroxy-N-[(6-phenoxy-2H-chromen-3-yl)methyl]urea]
380 nM | – | 440 nM | – | NC(=O)N(O)CC1=Cc2cc(OCc3ccccc3)ccc2OC1 [N-(6-Benzyloxy-2H-chromen-3-ylmethyl)-hydroxylurea]
1400 nM | – | 1400 nM | – | NC(=O)N(O)CC1=Cc2cc(Br)ccc2OC1 [N-[(6-bromo-2H-chromen-3-yl)methyl]-N-hydroxyurea]
74 nM | – | 68 nM | – | CCOC(=O)CNC(=O)N(O)CC1=Cc2cc(Oc3ccccc3)ccc2OC1 [ethyl [({hydroxy[(6-phenoxy-2H-chromen-3-yl)methyl]amino}carbonyl)amino]acetate]
200 nM | 180 nM | – | – | NC(=S)N(O)CC1=Cc2cc(Oc3ccccc3)ccc2OC1 [N-hydroxy-N-[(6-phenoxy-2H-chromen-3-yl)methyl]thiourea]
– | – | – | > 20000 nM | CC(c1cc2ccccc2s1)N(O)C(N)=O (racemic) [Leutrol]
